SMILES strings stand for the structures. Where a name gives a salt, the structure may show the parent alone.

In this assay the target is T1, DPP-IV obtained from pig kidney (Sus scrofa, UniProt P22411).
T1 construct: DPP-IV obtained from pig kidney; from tissue; host or cells: pig kidney
The experiment in a line: Measurement of DPPIV-inhibiting activity (in vitro experiment). It counts as biochemical. The conditions noted are these: DPP-IV from pig kidney 10 mU/mL, substrate Gly-Pro-p-nitroanilide 0.33 mM, 20 min preincubation, 20 min reaction, absorbance 405 nm. On the procedure:
DPP-IV obtained from pig kidney was dissolved in a reaction buffer (50 mM Tris-HCl pH7.4, 0.1% BSA) at 10 mU/mL, and 110 μL of this was used. 15 μL of the drug obtained from the aforementioned Examples was added, and this was incubated at room temperature for 20 minutes, and then 25 μL of a 2 mM solution of Gly-Pro-p-nitroanilide (final concentration 0.33 mM) was added to start the enzymatic reaction. The reaction time was 20 minutes, and 1 N phosphoric acid solution (25 μL) was added to stop the reaction.

T1 sequence (P22411 whole entry): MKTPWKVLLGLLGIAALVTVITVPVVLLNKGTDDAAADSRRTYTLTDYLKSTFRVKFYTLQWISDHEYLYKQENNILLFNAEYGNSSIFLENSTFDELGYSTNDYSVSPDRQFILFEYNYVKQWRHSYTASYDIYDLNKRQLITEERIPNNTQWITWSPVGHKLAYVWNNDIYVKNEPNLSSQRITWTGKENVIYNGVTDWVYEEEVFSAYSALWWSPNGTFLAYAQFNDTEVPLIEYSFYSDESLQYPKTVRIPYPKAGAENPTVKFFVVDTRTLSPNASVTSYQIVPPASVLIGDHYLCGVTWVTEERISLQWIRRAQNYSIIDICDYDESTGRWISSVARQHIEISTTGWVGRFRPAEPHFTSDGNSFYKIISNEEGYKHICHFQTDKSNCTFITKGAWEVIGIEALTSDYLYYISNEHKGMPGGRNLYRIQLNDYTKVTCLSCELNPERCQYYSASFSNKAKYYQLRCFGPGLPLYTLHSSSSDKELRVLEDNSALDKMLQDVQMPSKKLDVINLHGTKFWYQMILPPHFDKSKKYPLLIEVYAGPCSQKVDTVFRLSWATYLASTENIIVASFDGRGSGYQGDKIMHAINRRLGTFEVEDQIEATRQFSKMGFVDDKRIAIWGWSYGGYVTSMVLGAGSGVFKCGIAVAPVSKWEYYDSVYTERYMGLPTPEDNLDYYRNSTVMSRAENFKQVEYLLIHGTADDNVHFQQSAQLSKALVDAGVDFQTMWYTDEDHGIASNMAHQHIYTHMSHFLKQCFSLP

As a reminder, the IC50 is the midpoint of a concentration-inhibition curve. Lower therefore signals greater potency. As for `CC#CCn1c(=O)n(CCc2ccc(Br)cc2)c2nc(Cl)nc(N3CCNCC3)c21` [Example 35, 9-[2-(4-Bromophenyl)-ethyl]-7-(2-butynyl)-2-chloro-6-(piperazin-1-yl)-7,9-dihydropurin-8-one trifluoroacetic acid salt], 26.6 nM corresponded to half-maximal inhibition (IC50). The value for `CC#CCn1c(=O)n(-c2ccsc2)c2nc(Cl)nc(N3CCNCC3)c21` [Example 45, 7-(2-Butynyl)-2-chloro-6-(piperazin-1-yl)-9-(thiophen-3-yl)-7,9-dihydropurin-8-one trifluoroacetic acid salt] was 130 nM; that for `CC#CCn1c(=O)n(-c2ccc(OC)nc2)c2ncnc(N3CCNCC3)c21` [Example 66, 7-(2-Butynyl)-9-(6-methoxy-pyridin-3-yl)-6-(piperazin-1-yl)-7,9-dihydropurin-8-one trifluoroacetic acid salt] was 59.3 nM.

Turning to `CC#CCn1c(=O)n(Cc2ccccc2C#N)c2ncnc(N3CCNCC3)c21` [Example 79, 2-[7-(2-Butynyl)-8-oxo-6-piperazin-1-yl-7,8-dihydropurin-9-ylmethyl]benzonitrile trifluoroacetic acid salt], the IC50 stood at 4.2 nM. Molecule `CC#CCn1c(=O)n(CCC)c2nc(Cl)nc(N3CCNCC3)c21` [Example 30, 7-(2-Butynyl)-2-chloro-6-(piperazin-1-yl)-9-propyl-7,9-dihydropurin-8-one trifluoroacetic acid salt] displayed an IC50 of 132 nM. As for `CC#CCOc1nc(N2CCNCC2)c2c(n1)n(C)c(=O)n2CC#CC` [Example 16, 7-(2-Butynyl)-2-(2-butynyloxy)-9-methyl-6-(piperazin-1-yl)-7,9-dihydropurin-8-one trifluoroacetic acid salt], the midpoint of inhibition, the IC50, lay at 364 nM. Regarding `CC#CCn1c(=O)n(CCCC#N)c2nc(Cl)nc(N3CCNCC3)c21` [Example 37, 4-[7-(2-Butynyl)-2-chloro-8-oxo-6-(piperazin-1-yl)-7,8-dihydropurin-9-yl]butyronitrile trifluoroacetic acid], the IC50 was determined as 149 nM. The value for `CC#CCn1c(=O)n(-c2ccc(=O)[nH]c2)c2ncnc(N3CCNCC3)c21` [Example 67, 7-(2-Butynyl)-9-(6-oxo-16-dihydro-pyridin-3-yl)-6-(piperazin-1-yl)-7,9-dihydropurin-8-one trifluoroacetic acid salt] was 49.8 nM; that for `CC#CCn1c(=O)n(C)c2nc(Cl)nc(N3CCNCC3)c21` [Example 2, 7-(2-Butynyl)-2-chloro-9-methyl-6-(piperazin-1-yl)-7,9-dihydropurin-8-one trifluoroacetic acid salt] was 86.4 nM; that for `C=Cc1ccc(-n2c(=O)n(CC#CC)c3c(N4CCNCC4)nc(OC)nc32)cc1` [Example 58, 7-(2-Butynyl)-2-methoxy-6-(piperazin-1-yl)-9-(4-vinyl-phenyl)-7,9-dihydropurin-8-one trifluoroacetic acid salt] was 15.6 nM. The result for `CC#CCn1c(=O)n(CCc2ccccc2)c2nc(Cl)nc(N3CCNCC3)c21` [Example 34, 7-(2-Butynyl)-2-chloro-9-(2-phenylethyl)-6-(piperazin-1-yl)-7,9-dihydropurin-8-one trifluoroacetic acid salt] reads 14.8 nM; that for `CC#CCn1c(=O)n(-c2ccoc2)c2ncnc(N3CCNCC3)c21` [Example 63, 7-(2-Butynyl)-9-(furan-3-yl)-6-(piperazin-1-yl)-7,9-dihydropurin-8-one trifluoroacetic acid salt], 146 nM. Turning to `CC#CCn1c(=O)n(C)c2c(Oc3ccccc3C(N)=O)cnc(N3CCNCC3)c21` [Example 83, 2-[3-(2-Butynyl)-1-methyl-2-oxo-4-piperazin-1-yl-2,3-dihydro-1H-imidazo[4.5-c]pyridin-7-yloxy]-benzamide trifluoroacetic acid salt], inhibition was half-maximal at 1130 nM (IC50). The result for `CC#CCn1c(=O)n(-c2cccnc2)c2nc(OC)nc(N3CCNCC3)c21` [Example 55, 7-(2-Butynyl)-2-methoxy-6-(piperazin-1-yl)-9-(pyridin-3-yl)-7,9-dihydropurin-8-one trifluoroacetic acid salt] reads 37.2 nM; that for `CC#CCn1c(=O)n(CC(=O)OC)c2nc(Cl)nc(N3CCNCC3)c21` [Example 40, [7-(2-Butynyl)-2-chloro-8-oxo-6-(piperazin-1-yl)-7,8-dihydropurin-9-yl]acetic acid methyl ester trifluoroacetic acid salt], 89.6 nM.

The molecule `CC#CCn1c(=O)n(C)c2nc(N)nc(N3CCNCC3)c21` [Example 6, 2-Amino-7-(2-butynyl)-9-methyl-6-(piperazin-1-yl)-7,9-dihydropurin-8-one trifluoroacetic acid salt] showed a half-inhibitory concentration (IC50) of 450 nM. The result for `C=CCn1c(=O)n(CC#CC)c2c(N3CCNCC3)nc(Oc3ccccc3C(N)=O)nc21` [Example 60, 2-[9-Allyl-7-(2-butynyl)-8-oxo-6-(piperazin-1-yl)-8,9-dihydro-7H-purin-2-yloxy]benzamide trifluoroacetic acid salt] reads 119 nM. In turn, `CC#CCn1c(=O)n(CC2CC2)c2nc(Cl)nc(N3CCNCC3)c21` [Example 38, 7-(2-Butynyl)-2-chloro-9-cyclopropylmethyl-6-(piperazin-1-yl)-7,9-dihydropurin-8-one trifluoroacetic acid salt] showed an IC50 of 150 nM.

Regarding `CC#CCn1c(=O)n(C)c2nc(O)nc(N3CCNCC3)c21` [Example 8, 7-(2-Butynyl)-2-hydroxy-9-methyl-6-(piperazin-1-yl)-7,9-dihydropurin-8-one trifluoroacetic acid salt], the IC50 was 1160 nM. For `N#Cc1ccccc1Cn1c(=O)n(Cc2ccccc2)c2c(N3CCNCC3)ncc(Oc3ccccc3C(N)=O)c21` [Example 81, 2-[3-Benzyl-1-(2-cyanobenzyl)-2-oxo-4-piperazin-1-yl-2,3-dihydro-1H-imidazo[4.5-c]pyridin-7-yloxy]-benzamide trifluoroacetic acid salt], it took 409 nM to reach half-maximal inhibition (IC50).

With `Cn1c(=O)n(Cc2ccccc2)c2c(N3CCNCC3)ncnc21` [Example 78, 7-Benzyl-9-methyl-6-(piperazin-1-yl)-7,9-dihydropurin-8-one trifluoroacetic acid salt], the IC50 amounted to 3800 nM. The result for `CC#CCn1c(=O)n(CC(N)=O)c2ncnc(N3CCNCC3)c21` [Example 71, 2-[7-(2-Butynyl)-8-oxo-6-(piperazin-1-yl)-7,8-dihydropurin-9-yl]acetamide trifluoroacetic acid salt] reads 260 nM; that for `CC#CCn1c(=O)n(C)c2nc(OCc3ccccc3)nc(N3CCNCC3)c21` [Example 11, 2-Benzyloxy-7-(2-butynyl)-9-methyl-6-(piperazin-1-yl)-7,9-dihydropurin-8-one trifluoroacetic acid salt], 179 nM. The value for `CC#CCn1c(=O)n(-c2ccc(=O)n(C)c2)c2ncnc(N3CCNCC3)c21` [Example 68, 7-(2-Butynyl)-9-(1-methyl-6-oxo-1,6-dihydro-pyridin-3-yl)-6-(piperazin-1-yl)-7,9-dihydropurin-8-one trifluoroacetic acid salt] was 187 nM; that for `N#Cc1ccccc1Cn1c(=O)n(Cc2ccccc2)c2c(N3CCNCC3)nccc21` [Example 80, 2-(3-Benzyl-2-oxo-4-piperazin-1-yl-2,3-dihydroimidazo[4.5-c]pyridin-1-ylmethyl)benzonitrile] was 3010 nM.

The values above are taken from patent US7524847B2, “Fused 1,3-dihydro-imidazole ring compounds” (Eisai R&D Management Co., Ltd., priority 2002, dated 2009).
